Experimental data reported in ChEMBL document CHEMBL1121894, “Studies on phenethylamine hallucinogens. 2. Conformations of arylmethoxyl groups using 13C NMR” (1981).
The source made the active and inactive calls. The rule behind the calls is not given here.

Experiments:
Homo sapiens [1] = species on record: Homo sapiens; assay: Psychotomimetic potency expressed as the effective dose of mescaline divided by the effective dose in human; Inactive; format: functional, organism-based
Homo sapiens [2] = species on record: Homo sapiens; assay: Psychotomimetic potency expressed as the effective dose of mescaline divided by the effective dose in human; format: functional

| SMILES | Potency (Homo sapiens [1]) | Potency (Homo sapiens [2]) [MU] |
| --- | --- | --- |
| COc1ccc(CC(C)N)c(OC)c1OC (stereo unspecified) | inactive |  |
| COc1ccc(CC(C)N)cc1.Cl (stereo unspecified) |  | 5 |
| COc1cc(CC(C)N)cc(OC)c1OC.Cl (stereo unspecified) |  | 2.2 |
| COc1cc(OC)c(CC(C)N)c(OC)c1.Cl (stereo unspecified) |  | 10 |
| COc1c(CCN)ccc2c1OCO2.Cl |  | 5 |
| COc1cc(CC(C)N)c(OC)cc1C.Cl (stereo unspecified) |  | 80 |
| COc1c(CC(C)N)ccc2c1OCO2.Cl (stereo unspecified) |  | 10 |
| COc1ccc(CCN)c(OC)c1OC | inactive |  |
| COc1cc(OC)c(OC)cc1CC(C)N.Cl (stereo unspecified) |  | 17 |
| COc1cc(CCN)cc(OC)c1OC.Cl |  | 1 |
| COc1ccc(OC)c(CC(C)N)c1.Cl (stereo unspecified) |  | 8 |
